From ChEMBL document CHEMBL1201862, “PubChem BioAssay data set” (2004)
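Following 48 hours of exposure in 96-well plates, responses at five concentrations were used to interpolate endpoints linearly. At the GI50, growth is halved.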 The source made the active and inactive calls. Rule as the data show it: active = GI50 up to about 1.1 µM and inactive = higher.

How the values were obtained:
Assay in all cases: DTP human tumour cell line panel, 48 h
CCRF-CEM = tested on: CCRF-CEM
EKVX = tested on: EKVX
HCT-116 = tested on: HCT-116
HCT-15 = tested on: HCT-15
HT-29 = tested on: HT-29
IGROV-1 = tested on: IGROV-1
K562 = tested on: K562
KM-20L2 = tested on: KM-20L2
NCI-H460 = tested on: NCI-H460
NCI/ADR-RES = tested on: NCI/ADR-RES
OVCAR-3 = tested on: OVCAR-3
OVCAR-4 = tested on: OVCAR-4
OVCAR-5 = tested on: OVCAR-5
SF-268 = tested on: SF-268
SK-MEL-2 = tested on: SK-MEL-2
SN12C = tested on: SN12C
SR = tested on: SR
UACC-257 = tested on: UACC-257

## C/C=C/C1=C(Cl)C(=O)[C@@H](Cl)[C@@]1(O)C(=O)OC [(+)-CRYPTOSPORIPSIN]
CCRF-CEM
  GI50: 0.912 µM (active)
EKVX
  GI50: 3.65 µM (inactive)
HCT-116
  GI50: 2.84 µM (inactive)
HCT-15
  GI50: 1.73 µM
HT-29
  GI50: 3.46 µM (inactive)
IGROV-1
  GI50: 5.38 µM (inactive)
K562
  GI50: 0.869 µM (active)
KM-20L2
  GI50: 4.68 µM (inactive)
NCI-H460
  GI50: 5.09 µM (inactive)
NCI/ADR-RES
  GI50: 2.15 µM (inactive)
OVCAR-3
  GI50: 2.45 µM (inactive)
OVCAR-4
  GI50: 2.09 µM (inactive)
OVCAR-5
  GI50: 11.2 µM (inactive)
SF-268
  GI50: 10.6 µM (inactive)
SK-MEL-2
  GI50: 2.72 µM (inactive)
SN12C
  GI50: 2.65 µM (inactive)
SR
  GI50: 1.84 µM (inactive)
UACC-257
  GI50: 1.6 µM (inactive)

## NC(C(=O)O)c1ccc(C(=O)O)cc1 (stereo not given)
CCRF-CEM
  GI50: > 100 µM (inactive)
EKVX
  GI50: > 100 µM (inactive)
HCT-15
  GI50: > 100 µM
HT-29
  GI50: > 100 µM (inactive)
IGROV-1
  GI50: > 100 µM (inactive)
K562
  GI50: > 100 µM (inactive)
KM-20L2
  GI50: > 100 µM (inactive)
NCI-H460
  GI50: > 100 µM (inactive)
OVCAR-3
  GI50: > 100 µM (inactive)
OVCAR-4
  GI50: > 100 µM (inactive)
OVCAR-5
  GI50: > 100 µM (inactive)
SF-268
  GI50: > 100 µM (inactive)
SK-MEL-2
  GI50: > 100 µM (inactive)
SN12C
  GI50: > 100 µM (inactive)
SR
  GI50: > 100 µM (inactive)
UACC-257
  GI50: > 100 µM (inactive)

## CC1OC(OCC2OC(Oc3c(-c4ccc(O)cc4)oc4cc(O)cc(O)c4c3=O)C(OC3OCC(O)(CO)C3O)C(O)C2O)C(O)C(O)C1O (stereo not given)
CCRF-CEM
  GI50: 25.7 µM (inactive)
EKVX
  GI50: > 100 µM (inactive)
HCT-116
  GI50: 31.2 µM (inactive)
HCT-15
  GI50: 22.1 µM
HT-29
  GI50: > 100 µM (inactive)
IGROV-1
  GI50: > 100 µM (inactive)
K562
  GI50: 29.4 µM (inactive)
KM-20L2
  GI50: > 100 µM (inactive)
NCI-H460
  GI50: 66.4 µM (inactive)
OVCAR-3
  GI50: > 100 µM (inactive)
OVCAR-4
  GI50: > 100 µM (inactive)
OVCAR-5
  GI50: > 100 µM (inactive)
SF-268
  GI50: > 100 µM (inactive)
SK-MEL-2
  GI50: > 100 µM (inactive)
SN12C
  GI50: > 100 µM (inactive)
SR
  GI50: > 100 µM (inactive)
UACC-257
  GI50: > 100 µM (inactive)

## COC1CC(OS(=O)(=O)c2ccc([N+](=O)[O-])cc2)C(OC(=O)c2ccccc2)C(C)O1 (stereo not given)
CCRF-CEM
  GI50: > 100 µM (inactive)
HCT-116
  GI50: > 100 µM (inactive)
HCT-15
  GI50: > 100 µM
HT-29
  GI50: > 100 µM (inactive)
IGROV-1
  GI50: > 100 µM (inactive)
K562
  GI50: > 100 µM (inactive)
KM-20L2
  GI50: > 100 µM (inactive)
NCI-H460
  GI50: > 100 µM (inactive)
OVCAR-3
  GI50: > 100 µM (inactive)
OVCAR-4
  GI50: 49.9 µM (inactive)
OVCAR-5
  GI50: > 100 µM (inactive)
SF-268
  GI50: 82.2 µM (inactive)
SN12C
  GI50: > 100 µM (inactive)
SR
  GI50: > 100 µM (inactive)
UACC-257
  GI50: > 100 µM (inactive)

## O=C1CCC(=O)C(C(=O)CCC(=O)Nc2cccc(Cl)c2)C1 (stereo not given)
CCRF-CEM
  GI50: > 100 µM (inactive)
EKVX
  GI50: > 100 µM (inactive)
HCT-116
  GI50: > 100 µM (inactive)
HCT-15
  GI50: > 100 µM
HT-29
  GI50: > 100 µM (inactive)
IGROV-1
  GI50: > 100 µM (inactive)
K562
  GI50: > 100 µM (inactive)
KM-20L2
  GI50: 71 µM (inactive)
NCI-H460
  GI50: > 100 µM (inactive)
OVCAR-3
  GI50: > 100 µM (inactive)
OVCAR-5
  GI50: > 100 µM (inactive)
SN12C
  GI50: > 100 µM (inactive)
SR
  GI50: > 100 µM (inactive)
UACC-257
  GI50: > 100 µM (inactive)

## COC(=O)CSc1nnc(-c2ccccc2)[nH]1
CCRF-CEM
  GI50: > 100 µM (inactive)
EKVX
  GI50: > 100 µM (inactive)
HCT-116
  GI50: > 100 µM (inactive)
HCT-15
  GI50: > 100 µM
HT-29
  GI50: > 100 µM (inactive)
IGROV-1
  GI50: > 100 µM (inactive)
K562
  GI50: > 100 µM (inactive)
KM-20L2
  GI50: > 100 µM (inactive)
NCI-H460
  GI50: > 100 µM (inactive)
OVCAR-3
  GI50: > 100 µM (inactive)
OVCAR-4
  GI50: > 100 µM (inactive)
OVCAR-5
  GI50: > 100 µM (inactive)
SF-268
  GI50: > 100 µM (inactive)
SK-MEL-2
  GI50: > 100 µM (inactive)
SN12C
  GI50: > 100 µM (inactive)
SR
  GI50: 3.7 µM (inactive)
UACC-257
  GI50: > 100 µM (inactive)

## Cc1c(/C=N/N=C/c2[nH]c(C(=O)OC(C)(C)C)c(C)c2C)[nH]c(C(=O)OC(C)(C)C)c1C
CCRF-CEM
  GI50: 70.1 µM (inactive)
EKVX
  GI50: > 100 µM (inactive)
HCT-116
  GI50: > 100 µM (inactive)
HCT-15
  GI50: > 100 µM
HT-29
  GI50: > 100 µM (inactive)
IGROV-1
  GI50: > 100 µM (inactive)
K562
  GI50: 59.4 µM (inactive)
KM-20L2
  GI50: > 100 µM (inactive)
NCI-H460
  GI50: 81.5 µM (inactive)
OVCAR-3
  GI50: > 100 µM (inactive)
OVCAR-4
  GI50: > 100 µM (inactive)
OVCAR-5
  GI50: > 100 µM (inactive)
SF-268
  GI50: > 100 µM (inactive)
SK-MEL-2
  GI50: > 100 µM (inactive)
SN12C
  GI50: > 100 µM (inactive)
SR
  GI50: > 100 µM (inactive)
UACC-257
  GI50: > 100 µM (inactive)

## CCOC(=O)CC1COc2ccc3c(c21)OCO3 (stereo not given)
CCRF-CEM
  GI50: > 100 µM (inactive)
EKVX
  GI50: > 100 µM (inactive)
HCT-116
  GI50: > 100 µM (inactive)
HCT-15
  GI50: > 100 µM
HT-29
  GI50: > 100 µM (inactive)
IGROV-1
  GI50: > 100 µM (inactive)
K562
  GI50: > 100 µM (inactive)
KM-20L2
  GI50: > 100 µM (inactive)
NCI-H460
  GI50: > 100 µM (inactive)
OVCAR-3
  GI50: > 100 µM (inactive)
OVCAR-4
  GI50: > 100 µM (inactive)
OVCAR-5
  GI50: > 100 µM (inactive)
SK-MEL-2
  GI50: > 100 µM (inactive)
SN12C
  GI50: > 100 µM (inactive)
SR
  GI50: > 100 µM (inactive)
UACC-257
  GI50: > 100 µM (inactive)
